Results on one compound are retold here after patent US9138411B2 (University of North Texas Health Science Center, priority 2012, dated 2015).

SMILES strings stand for the structures.

The conditions of the data set: human, in vivo, 4.5 mg/kg.

Take `COc1cc(/C=C/C(=O)CC(=O)/C=C/c2ccc(O)c(OC)c2)ccc1O` [curcumin, diferuloylmethane]: the blood plasma levels was 5 to 11 µmol.
